Test results: patent US5998442A, “Benzo [B] thiophene compounds, and compositions for treating bone loss, and hyperlipidemia” (Eli Lilly and Company, priority 1997, dated 1999)

Tests used:
[1] = tested on: bone, ovariectomized rats; assay: Osteoporosis Test Procedure: bone loss in ovariectomized rats (summary); format: in vivo, rat; conditions: orally administered
Procedure: (§1) Following the General Preparation Procedure, infra, the rats were treated daily for 35 days (6 rats per treatment group) and sacrificed by carbon dioxide asphyxiation on the 36th day. The 35 day time period was sufficient to allow maximal reduction in bone density, measured as described herein. At the time of sacrifice, the uteri were removed, dissected free of extraneous tissue, and the fluid contents were expelled before determination of wet weight in order to confirm estrogen deficiency associated with complete ovariectomy. […] The uteri were then placed in 10% neutral buffered formalin to allow for subsequent histological analysis. The right femurs were excised and digitilized x-rays generated and analyzed by an image analysis program (NIH image) at the distal metaphysis. The proximal aspect of the tibiae from these animals were also scanned by quantitative computed tomography. […] Distal femur metaphysis and proximal tibiae data presented in Tables 2 and 3 below, respectively are the results of formula I compound treatments compared to intact and ovariectomized test animals. Results are reported as percent protection relative to ovariectomy.

[2] = tested on: Distal Femur Metaphysis, ovariectomized rats; assay: Osteoporosis Test Procedure: distal femur metaphysis X-ray image analysis; format: in vivo, rat; conditions: oral, 35 days; dose not given
Procedure: as §1

[3] = tested on: serum cholesterol, ovariectomized rats; assay: Serum cholesterol in ovariectomized rats (4 days daily oral dosing); format: in vivo, rat (female Sprague Dawley)
Procedure: (§2) In the examples illustrating the methods, a postmenopausal model was used in which effects of different treatments upon circulating lipids were determined.
(§3) Seventy-five day old female Sprague Dawley rats (weight range of 200 to 225 g) were obtained from Charles River Laboratories (Portage, Mich.). The animals were either bilaterally ovariectomized (OVX) or exposed to a Sham surgical procedure at Charles River Laboratories, and then shipped after one week. Upon arrival, they were housed in metal hanging cages in groups of 3 or 4 per cage and had ad libitum access to food (calcium content approximately 0.5%) and water for one week. Room temperature was maintained at 22.2°±1.70° C. with a minimum relative humidity of 40%. The photoperiod in the room was 12 hours light and 12 hours dark.
(§4) After a one week acclimation period (therefore, two weeks post-OVX) daily dosing with test compound was initiated. […] Animals were dosed daily for 4 days. Following the dosing regimen, animals were weighed and anesthetized with a ketamine: Xylazine (2:1, V:V) mixture and a blood sample was collected by cardiac puncture. The animals were then sacrificed by asphyxiation with CO2, the uterus was removed through a midline incision, and a wet uterine weight was determined.
Blood samples were allowed to clot at room temperature for 2 hours, and serum was obtained following centrifugation for 10 minutes at 3000 rpm. Serum cholesterol was determined using a Boehringer Mannheim Diagnostics high performance cholesterol assay. Briefly the cholesterol was oxidized to cholest-4-en-3-one and hydrogen peroxide. The hydrogen peroxide was then reacted with phenol and 4-aminophenazone in the presence of peroxidase to produce a p-quinone imine dye, which was read spectrophotemetrically at 500 nm. Cholesterol concentration was then calculated against a standard curve. The entire assay was automated using a Biomek Automated Workstation. […]
(§5) The data presented in Table 1 below reflects the response of 5 to 6 rats per treatment.

[4] = tested on: uterus, ovariectomized rats; assay: Uterine weight in ovariectomized rats (4 days daily oral dosing); format: in vivo, rat (female Sprague Dawley)
Procedure: as §2, §3, §4
This uterine response to estrogen is well recognized in the art.
as §5

[5] = tested on: Proximal Tibiae, ovariectomized rats; assay: Osteoporosis Test Procedure: proximal tibiae quantitative computed tomography; format: in vivo, rat; conditions: 35 days
Procedure: as §1

[6] = tested on: MCF-7 breast adenocarcinoma cells; assay: MCF-7 Proliferation Assay (tritiated thymidine); format: cell-based; conditions: Homo sapiens, MCF7, 48 hours, read-out: IC50
Procedure: MCF-7 breast adenocarcinoma cells (ATCC HTB 22) were maintained in MEM (minimal essential medium, phenol red-free, Sigma, St. Louis, Mo.) supplimented with 10% fetal bovine serum (FBS) (V/V), L-glutamine (2 mM), sodium pyruvate (1 mM), HEPES {(N-[2-hydroxyethyl]piperazine-N'-[2-ethanesulfonic acid]10 mM}, non-essential amino acids and bovine insulin (1 ug/mL) (maintenance medium). Ten days prior to assay, MCF-7 cells were switched to maintenance medium supplemented with 10% dextran coated charcoal stripped fetal bovine serum (DCC-FBS) assay medium) in place of 10% FBS to deplete internal stores of steroids. MCF-7 cells were removed from maintenance flasks using cell dissociation medium (Ca++/Mg++ free HBSS (phenol red-free) supplemented with 10 mM HEPES and 2 mM EDTA). Cells were washed twice with assay medium and adjusted to 80,000 cells/mL. Approximately […] (8,000 cells) were added to flat-bottom microculture wells (Costar 3596) and incubated at 37° C. in a 5% CO2 humidified incubator for 48 hours to allow for cell adherence and equilibration after transfer. Serial dilutions of drugs or DMSO as a diluent control were prepared in assay medium and […] to triplicate microcultures followed by […] assay medium for a final volume of […]. After an additional 48 hours at 37° C. in a 5% CO2 humidified incubator, microcultures were pulsed with tritiated thymidine (1 uCi/well) for 4 hours. Cultures were terminated by freezing at -70° C. for 24 hours followed by thawing and harvesting of microcultures using a Skatron Semiautomatic Cell Harvester. Samples were counted by liquid scintillation using a Wallac BetaPlace b counter. Results in Table 4 below show the IC50 for certain compounds of the instant invention. […]

[7] = tested on: Uterine Eosinophil Peroxidase (EPO); assay: Uterine Eosinophil Peroxidase (EPO) Assay in ovariectomized rats; format: in vivo, rat (female Sprague Dawley); design: Uterine EPO (Vmax): unit not given here
Text: as §3, §4
Uteri were kept at 4° C. until time of enzymatic analysis. The uteri were then homogenized in 50 volumes of 50 mM Tris buffer (pH-8.0) containing 0.005% Triton X-100. Upon addition of 0.01% hydrogen peroxide and 10 mM O-phenylenediamine (final concentrations) in Tris buffer, increase in absorbance was monitored for one minute at 450 nm. The presence of eosonophils in the uterus is an indication of estrogenic activity of a compound. The maximal velocity of a 15 second interval was determined over the initial, linear portion of the reaction curve.
As is expressed in the data below, estrogenicity also was assessed by evaluating the adverse response of eosinophil infiltration into the uterus.
as §5

[8] = orally administered at 0.1 mg/kg/day

Compound	prevention of bone loss (in words) [1]	Distal Femur Metaphysis (X-ray Image Analysis-Gray Score), percent protection relative to ovariectomy [2]	serum cholesterol (in words) [3, 8]	uterine weight (in words) [4, 8]	Proximal Tibiae Total Bone Mineral Density (Quantitative Computed Tomography), percent protection relative to ovariectomy ([5]; 0.1 mg/kg oral)	inhibition in vivo at 0.1 mg/kg ([3]; Rattus norvegicus, 96 h, 0.1 mg/kg PO, read-out: Serum Cholesterol (% decrease vs. OVX))	inhibition in vivo at 1 mg/kg ([3]; Rattus norvegicus, 96 h, 1.0 mg/kg PO, read-out: Serum Cholesterol (% decrease vs. OVX))	inhibition in vivo at 10 mg/kg ([3]; Rattus norvegicus, 96 h, 10.0 mg/kg PO, read-out: Serum Cholesterol (% decrease vs. OVX))	change in vivo at 0.1 mg/kg ([4]; Rattus norvegicus, 96 h, 0.1 mg/kg PO, read-out: Uterine weight (% increase vs. OVX))	change in vivo at 1 mg/kg ([4]; Rattus norvegicus, 96 h, 1.0 mg/kg PO, read-out: Uterine weight (% increase vs. OVX))	change in vivo at 10 mg/kg ([4]; Rattus norvegicus, 96 h, 10.0 mg/kg PO, read-out: Uterine weight (% increase vs. OVX))	IC50 [6]	Uterine EPO (Vmax) ([7]; 0.1 mg/kg PO)	Uterine EPO (Vmax) ([7]; 1.0 mg/kg PO)	Uterine EPO (Vmax) ([7]; 10.0 mg/kg PO)	Proximal Tibiae Total Bone Mineral Density (Quantitative Computed Tomography), percent protection relative to ovariectomy ([5]; 1.0 mg/kg oral)	Proximal Tibiae Total Bone Mineral Density (Quantitative Computed Tomography), percent protection relative to ovariectomy ([5]; 10.0 mg/kg oral)
C#C[C@]1(O)CC[C@H]2[C@@H]3CCc4cc(O)ccc4[C@H]3CC[C@@]21C [EE2, 17a-ethynyl estradiol, reference compound]	prevented this loss	80.7%	caused a decrease in serum cholesterol	substantially greater than the uterine weight of ovariectomized test animals	59.4%	–	–	–	–	–	–	–	–	–	–	–	–
O=C(c1ccc(OCCN2CCCCC2)cc1)c1c(-c2cccc(O)c2)sc2cc(O)ccc12 [Example 12, [2-(3-Hydroxyphenyl)-6-hydroxybenzo[b]thien-3-yl][4-[2-(1-piperidinyl)ethoxy]phenyl]methanone]	–	–	–	–	-30.9%	24.3%	52.3%	49.1%	15.5%	22.7%	16.7%	3.2 nM	2.0	2.6	2.4	51.5%	79.7%
